Data from patent publication US7863242B2, “Compositions for down-regulation of CCR5 expression and methods of use thereof” (priority 2003, dated 2011).
pIC50: −log10 of the molar value. Like-named read-outs stand apart in the source and are kept apart here.

Legend:
[1] = test system: MIP-1α; experiment: Extracellular MIP-1α level in PBMC culture supernatants (ELISA); format: cell-based, human; details: day 10, four donors
[2] = test system: HIV-1 IIIb; experiment: HIV-1 IIIb replication in PBMCs (p24 assay); format: cell-based; details: Human immunodeficiency virus 1, IIIB, PBMC, 7 days pretreatment, day 7 after infection
Experimental: (§1) Infectivity Assays: The following viruses were used in infection experiments: HIV-1 IIIb, HIV-1 ADA, HIV-1 BaL, HIV-1 JRFL, HIV-1 JRCSF, and HIV-1 SF162. HIV-1 IIIb is a T cell line-adapted lab strain that uses CXCR4 for entry into cells, whereas the rest are isolates that use CCR5. Viruses were obtained from the National Institutes of Health AIDS Research and Reference Reagent Program.
(§2) For infection of PBMCs, fresh donor PBMCs were cultured for 7 days in medium containing IL-2. On day 7, cells were exposed to the virus for 3 h. Nonadsorbed virus was removed by washing cells with PBS three times. Infected cells were cultured in IL-2 medium. Infection of MDMs was carried out as described before (Perno, 1993). Unless otherwise indicated, PBMCs were infected by using an moi of 0.001, and MDM were infected by using an moi of 0.002. Virus growth was monitored in culture supernatants by measuring p24 antigen levels by ELISA (NEN) or by measuring viral RT activity in an RT assay (Willey, 1988).
Antiviral Activity of RAPA in PBMCs: The antiviral activity of RAPA was assayed in PBMCs that had been cultured in the presence of RAPA for 7 days before infection. […] Infected cells were cultured in the presence of RAPA (same concentration as during pretreatment) for 7 additional days, during which time virus replication and cell viability were measured.

[3] = Tolerability of Rapamycin in HIV infected volunteers; format: in vivo, human; details: 2 mg/day after 6 mg loading dose, 28 days
Experimental: To assess the expression activity of CCR5 and its effects on levels of CCR5 receptors in vivo, an open-labeled, non-randomized proof of concept trial was performed in which 8 volunteers with established HIV infection were given 2 mg/day of Rapamycin, following a 6 mg loading dose, for 28 days. Peripheral blood for determining expression levels of CCR5 was obtained at the screening visit, days 7, 14 and 28 of the Rapamycin dosing, and at day 42 (which was two weeks following the last dose of Rapamycin).

[4] = test system: HIV-1 SF 162; experiment: HIV-1 SF 162 replication in monocyte-derived macrophages; format: cell-based; details: Human immunodeficiency virus 1, Macrophage; RAPA at 0.01 nM, additional experiment; read-out: inhibition of HIV-1 SF 162 in MDMs
Experimental: as §2
(§3) To this end, donor monocytes were cultured for 5 days in the presence of RAPA. On day 5, cells were infected with HIV-1 ADA. Infected cells were cultured in the presence of RAPA for an additional 14 days. Virus production was measured on the culture supernatants on days 7, 10, and 14 after infection. Cell viability was measured by the MTT assay at the end of the experiment.

[5] = test system: CCR5; experiment: CCR5 cell-surface expression on maturing monocytes (CD14-gated flow cytometry); format: cell-based, human; details: monocytes cultured 5 days, three donors
[6] = test system: CCR5; experiment: CCR5 surface expression on CD4 and CD8 T lymphocytes in IL-2 cultured PBMCs (flow cytometry, mAb 182); format: cell-based, human; details: days 7 and 10, five donors tested
Experimental: CCR5 surface expression was measured on PBMCs cultured in the presence of IL-2 for 7-10 days.

[7] = test system: MIP-1β; experiment: Extracellular MIP-1β level in PBMC culture supernatants (ELISA); format: cell-based, human; details: for increase of MIP-1β protein versus untreated control: day 10
Experimental: Levels of the β-chemokines MIP-1α, MIP-1β, and RANTES were measured in culture supernatants by using ELISA kits (R & D Systems).
RAPA Increases Extracellular Levels of MIP-1α and MIP-1β in PBMC Cultures: Because lymphocytes and monocytes cultured in the presence of RAPA presented reduced CCR5 RNA and protein levels, the levels of the CCR5 ligands MIP-1α, MIP-1β, and RANTES were measured in supernatants of RAPA-treated PBMC cultures. […] On day 10, percentage of cells expressing CCR5 and supernatant chemokine content were determined for each donor. […] Among the different donors, RAPA-treated cultures contained 6-39-fold higher levels of MIP-1α than untreated cultures. Similarly, MIP-1β levels were increased 17-47-fold in the presence of RAPA as compared with untreated controls. […] Chemokine results obtained in two of the donors, showing disparity of RANTES levels in the presence of RAPA, are depicted in FIG. 3A.
The above results were confirmed by evaluating the effect of RAPA on the secretion of MIP-1β, a chemokine that uses CCR5 as its only receptor, in cultures of PBMCs derived from a donor homozygous for the Δ32 mutation in the CCR5 gene. In this experimental setting, in which MIP-1β cannot be endocytosed by CCR5, the effect of RAPA on MIP-1β protein levels provided information regarding the mechanism by which RAPA increases β-chemokine levels. To this end, stimulated PBMCs from two normal donors and from a CCR5-null donor were cultured in the presence of RAPA as in previous experiments. MIP-1β levels in supernatants were evaluated on day 10. Representative results obtained in one of the normal donors are shown in FIG. 3B next to the results obtained on the CCR5-null donor.

[8] = test system: HIV-1 ADA; experiment: HIV-1 ADA replication in monocyte-derived macrophages (RT assay); format: cell-based
Experimental: as §2, §3
In the above-described experiment, monocytes had been pretreated with RAPA during the 5-day differentiation period. To control for the possible interference of RAPA with the process of monocyte differentiation, a new infection experiment in which RAPA was not present during the 5-day monocyte differentiation period was designed. To this end, fresh monocytes were cultured for 5 days in the absence of RAPA. On day 5, cells were infected with HIV-1 ADA and then exposed to RAPA.

[9] = test system: PBMCs; details: PBMCs with IL-2, day 7
[10] = test system: HIV-1 ADA; experiment: microbe, parasite or virus in culture; details: for pIC50: read-out: Dm (dose at 50% inhibition, equivalent to IC50 value); for reduction of p24 levels: day 7 after infection
Experimental: as §1, §2
Antiviral Activity of RAPA in PBMCs: The antiviral activity of RAPA was assayed in PBMCs that had been cultured in the presence of RAPA for 7 days before infection. Cells were infected with the X4 HIV-1 IIIb and the R5 HIV-1 ADA strains. Infected cells were cultured in the presence of RAPA (same concentration as during pretreatment) for 7 additional days, during which time virus replication and cell viability were measured.
To test this hypothesis, donor PBMCs were cultured in IL-2 medium in the absence or presence of RAPA (1, 10, and 100 nM). […] Infected cells were cultured in the presence of RAPA (same concentration as during pretreatment) plus 0.1 nM TAK-779. Virus production was determined 7 days after infection.
Donor PBMCs were cultured in IL-2 medium in the absence or presence of HU (0 and 10 uM). After 7 days, cells were infected with HIV-1 ADA. Infected cells were cultured in the presence of HU (same concentration as during pretreatment) plus different concentration of TAK-779 ranging from 0, 2 and 20 nM). Virus production was determined 7 days after infection.
In order to determine the nature and degree of interaction between RAPA and T20, infectivity assays were performed in the presence of the drugs, alone and in combination. The infectivity assays were performed using PBMCs from healthy donors. PBMCs were cultured for 7 days in the presence of IL-2 (100 U/ml) in the presence or absence of RAPA. On day 7, cells were infected by exposure to the R5 strain HIV-1 ADA (m.o.i of 0.001) for 2 h. Non-adsorbed virus was removed by 3 washes with PBS. Infected cells were then plated in RPMI-10 supplemented with IL-2 (100 U/ml) in the presence of different concentrations of RAPA and T20. Each drug concentration was tested in triplicate. Medium was changed in day 3 after infection and drugs were added at the same concentration as before. On day 7 after infection, virus production was measured in the culture supernatants using a commercial p24 antigen ELISA (NCI, Frederick). Cell viability was determined using the MTT assay (Roche).
The antiviral data was then analyzed for synergy using two different methodologies, the Median Effect principle and Three Dimensional modeling.

[11] = test system: MDMs; experiment: Cell viability of infected MDMs (MTT assay); format: cell-based, human; details: end of experiment (day 14 after infection)
Experimental: as §3

[12] = test system: R5 strains of HIV-1; experiment: Replication of a panel of five R5 strains of HIV-1 in PBMCs; format: cell-based; details: Human immunodeficiency virus 1, PBMC
Experimental: as §1, §2
RAPA at 0.01 nM inhibited R5 HIV-1 by 10-64% depending on the strains, whereas 0.1 nM RAPA inhibited virus replication by 15-85%. At 1 nM RAPA, all R5 viruses were inhibited by ≧90%.

[13] = test system: HIV-1 ADA; experiment: Serial passage of HIV-1 ADA in PBMCs, emergence of T20 resistance (RT assay); format: cell-based
Experimental: HIV-1 ADA was passaged in PBMCs 21 times in the presence of RAPA, T-20 or RAPA+T20. After every passage, virus content in the culture supernatant was measured using the RT assay.
HIV-1 replication in the presence of T20 leads to the emergence of drug resistant strains in vitro and in vivo, and this resistance is associated with mutations in the aa 36-45 of gp 41. […] To this end, HIV-1 ADA was passaged weekly for 24 weeks in the presence of RAPA, T20 and RAPA/T20 combined.

[14] = test system: human lymphocytes; experiment: Cell cycle analysis of activated PBMCs (propidium iodide, flow cytometry); format: cell-based; details: 4 μM, 24 hours, PBMCs from 2 normal donors
Experimental: Indirubin-3′-monoxime (IM) arrests human lymphocytes in G1 phase. PBMCs from 2 normal donors were activated in absence and presence of 4 μM Indirubin-3′-momoxime (IM) for 24 hours. Cells were then fixed with 70% Ethanol, stained with Propidium Iodide, and analyzed by Flow cytometry. Percentages of cells in each phase of the cell cycle are shown.

[15] = test system: CCR5 mRNA; experiment: Semiquantitative RT-PCR of CCR5 transcripts in PBMC cultures; format: cell-based, human; details: PBMCs cultured with IL-2 and drug for 7 days
Experimental: PCR Methodologies: Amplification of CCR5 and β-chemokine RNA sequences was performed by RT-PCR as described (Baba, 1996; Levine, 1996).

[16] = Human immunodeficiency virus 1, PBMC, 168 h, read-out: Fa (fractional inhibition)

Compound: CO[C@H]1C[C@@H]2CC[C@@H](C)[C@@](O)(O2)C(=O)C(=O)N2CCCC[C@H]2C(=O)O[C@H]([C@H](C)C[C@@H]2CC[C@@H](O)[C@H](OC)C2)CC(=O)[C@H](C)/C=C(\C)[C@@H](O)[C@@H](OC)C(=O)[C@H](C)C[C@H](C)/C=C/C=C/C=C/1C [RAPA, rapamycin]
- MIP-1α level versus untreated cultures [1]: 6-39 fold
- inhibition at 0.01 µM ([2]; 10 nM RAPA): 13.5%
- inhibition at 0.1 µM ([2]; 100 nM RAPA): 32%
- tolerability [3]: well-tolerated
- inhibition at 10 pM [4]: 45%
- concentrations giving consistent down-regulation of CCR5 surface expression on monocytes [5]: ≥ 10 pM
- concentrations that down-regulated CCR5 surface expression on CD4 lymphocytes [6]: ≥ 0.001 µM
- increase of MIP-1β protein versus untreated control ([7]; CCR5-null donor (Δ32 homozygous)): 1.2 fold
- MIP-1β level versus untreated controls ([7]; day 10, four donors): 17-47 fold
- increase of MIP-1β protein versus untreated control ([7]; normal donor): 9.3 fold
- inhibition of virus replication in already differentiated macrophages ([8]; 1 nM RAPA added after infection on day 5, day 14 after infection, one value per donor): ~80%
- inhibition at 0.001 µM ([8]; Human immunodeficiency virus 1, Macrophage, 1 nM RAPA added after infection on day 5, day 14 after infection, one value per donor, read-out: inhibition of virus replication in already differentiated macrophages): ~60%
- inhibition at 10 pM ([8]; Human immunodeficiency virus 1, Macrophage, RAPA at 0.01 nM, additional experiment, read-out: inhibition of HIV-1 ADA in MDMs): 64%
- inhibition of virus production in MDMs ([8]; RAPA 0.1-100 nM, present during 5-day differentiation, day 14 after infection): 70-95%
- drug concentration at which drug toxicity was observed [9]: above 10^3 nM
- pIC50 ([10]; Human immunodeficiency virus 1, PBMC, 168 h): 9.51
- inhibition at 30 pM [10, 16]: 1.7%
- inhibition at 60 pM [10, 16]: 10.2%
- inhibition at 0.00012 µM [10, 16]: 11.4%
- inhibition at 0.00025 µM [10, 16]: 54%
- inhibition at 0.0005 µM [10, 16]: 62%
- inhibition at 0.001 µM [10, 16]: 88%
- concentrations at which cell viability was reduced [11]: ≥ 10 nM
- inhibition at 10 pM ([12]; read-out: inhibition of R5 HIV-1, depending on the strains): 10 to 64%
- inhibition at 0.0001 µM ([12]; read-out: inhibition of R5 HIV-1 replication): 15 to 85%
- inhibition at 0.001 µM ([12]; read-out: inhibition of all R5 viruses): ≥ 90%

Compound: enfuvirtide
- Fa (fractional inhibition) ([10]; T-20 1.5 nM alone, p24 day 7): 0.210
- Fa (fractional inhibition) ([10]; T-20 3.12 nM alone, p24 day 7): 0.260
- Fa (fractional inhibition) ([10]; T-20 6.25 nM alone, p24 day 7): 0.400
- Fa (fractional inhibition) ([10]; T-20 12.5 nM alone, p24 day 7): 0.600
- Fa (fractional inhibition) ([10]; T-20 25 nM alone, p24 day 7): 0.810
- Fa (fractional inhibition) ([10]; T-20 50 nM alone, p24 day 7): 0.980
- pIC50 ([10]; drug used alone, p24 day 7): 8.21
- antiviral activity on passaged virus ([13]; T20 100 nM, from the 11th passage onwards): did not exert antiviral activity
- sensitivity of passaged virus to T20 ([13]; T20 alone, 10th passage): reduced sensitivity to T20
- inhibition of virus replication ([13]; T20 alone, initial 9 passages): > 75%

Compound: Indirubin-3′-monoxime
- percentage of cells in G1 phase versus untreated control [14]: the % of cells in G1 increases

Compound: NC(=O)NO [HU, hydroxyurea]
- concentrations that down-regulated CCR5 surface expression on CD4 lymphocytes [6]: ≥ 50 µM
- CCR5 transcripts (semiquantitative RT-PCR) [15]: decreased amounts of CCR5 transcripts
- reduction of p24 levels ([10]; 10 uM of HU alone): approximately 60%

Compound: Cc1ccc(-c2ccc3c(c2)C=C(C(=O)Nc2ccc(C[N+](C)(C)C4CCOCC4)cc2)CCC3)cc1.[Cl-] [TAK-779, N,N-dimethyl-N-[4-[[[2-(4-methylphenyl)-6,7-dihydro-5H-benzocyclohepten-8-yl]carbonyl]amino]benzyl]tetrahydro-2H-pyran-4-aminium chloride]
- reduction of p24 levels ([10]; 2 nM of TAK-779 alone): about 20%
- inhibition at 0.0001 µM ([10]; Human immunodeficiency virus 1, PBMC, 168 h, read-out: inhibition of virus replication): 21%
